Reference: EP4721732A1, “PHARMACEUTICAL COMPOSITION CONTAINING CRISDESALAZINE WITH IMPROVED STABILITY AND DISSOLUTION RATE” (priority 2023, dated 2024)
≈ marks a conversion by molar mass, not a printed value. Like-named read-outs stand apart in the source and are kept apart here.

How the values were obtained:
[1] = pH-dependent equilibrium solubility; format: physicochemical; details: for Equilibrium Solubility: BLOD = below limit of detection; for solubility thermodynamic at 12 h / solubility thermodynamic at 24 h: purified water, thermodynamic from solid
Procedure: First, the inventors of the present invention measured the pH-dependent equilibrium solubility of crisdesalazine (2-hydroxy-5-[2-(4-trifluoromethylphenyl)ethylamino]benzoic acid), and the results of the solubility at 12 hours and 24 hours were as shown in Table 1 and Figure 1 below. […]

[2] = Compatibility evaluation of crisdesalazine with excipients; format: physicochemical
Description: One embodiment of the present invention provides a pharmaceutical composition substantially free of lactose. The inventors conducted "compatibility" evaluation experiments between crisdesalazine and various excipients.
In other words, the long-term stability of crisdesalazine and lactose was difficult to predict based solely on short-term compatibility evaluation tests.
However, when compressed to a target hardness of 7-9 kPa, the target hardness was not achieved. The appearance of the tablet changed to a bluish gray color during the short period between mixing and compression.

## O=C(O)c1cc(NCCc2ccc(C(F)(F)F)cc2)ccc1O [crisdesalazine, 2-hydroxy-5-[2-(4-trifluoromethylphenyl)ethylamino]benzoic acid]
[1]; pH 3, 12 hours
  Equilibrium Solubility: BLOD
[1]; pH 3, 24 hours
  Equilibrium Solubility: BLOD
[1]; pH 4, 12 hours
  Equilibrium Solubility: BLOD
[1]; pH 1, simulated gastric fluid, pH 1, 12 hours, read-out: Equilibrium Solubility
  solubility thermodynamic at 12 h: 16.4 µg/mL (≈ 50.4 µM)
[1]; pH 1, simulated gastric fluid, pH 1, 24 hours, read-out: Equilibrium Solubility
  solubility thermodynamic at 24 h: 15.7 µg/mL (≈ 48.3 µM)
[1]; pH 2, simulated gastric fluid, pH 2, 12 hours, read-out: Equilibrium Solubility
  solubility thermodynamic at 12 h: 2.6 µg/mL (≈ 7.99 µM)
[1]; pH 2, simulated gastric fluid, pH 2, 24 hours, read-out: Equilibrium Solubility
  solubility thermodynamic at 24 h: 1.7 µg/mL (≈ 5.23 µM)
[1]; pH 4, aqueous buffer, pH 4, 24 hours, read-out: Equilibrium Solubility
  solubility thermodynamic at 24 h: 2.2 µg/mL (≈ 6.76 µM)
[1]; pH 5, aqueous buffer, pH 5, 12 hours, read-out: Equilibrium Solubility
  solubility thermodynamic at 12 h: 0.7 µg/mL (≈ 2.15 µM)
[1]; pH 5, aqueous buffer, pH 5, 24 hours, read-out: Equilibrium Solubility
  solubility thermodynamic at 24 h: 5.9 µg/mL (≈ 18.1 µM)
[1]; pH 6, aqueous buffer, pH 6, 12 hours, read-out: Equilibrium Solubility
  solubility thermodynamic at 12 h: 6.4 µg/mL (≈ 19.7 µM)
[1]; pH 6, aqueous buffer, pH 6, 24 hours, read-out: Equilibrium Solubility
  solubility thermodynamic at 24 h: 11.5 µg/mL (≈ 35.4 µM)
[1]; pH 7, aqueous buffer, pH 7, 12 hours, read-out: Equilibrium Solubility
  solubility thermodynamic at 12 h: 38.2 µg/mL (≈ 117 µM)
[1]; pH 7, aqueous buffer, pH 7, 24 hours, read-out: Equilibrium Solubility
  solubility thermodynamic at 24 h: 39.7 µg/mL (≈ 122 µM)
[1]; pH 7, aqueous buffer, pH 7 or lower, 12 hours, read-out: equilibrium solubility in purified water
  solubility thermodynamic at 12 h: ≤ 38.2 µg/mL
[1]; pH 7, aqueous buffer, pH 7 or lower, 24 hours, read-out: equilibrium solubility in purified water
  solubility thermodynamic at 24 h: ≤ 39.7 µg/mL
[1]; pH 8, aqueous buffer, pH 8, 12 hours, read-out: Equilibrium Solubility
  solubility thermodynamic at 12 h: 254 µg/mL (≈ 781 µM)
[1]; pH 8, aqueous buffer, pH 8, 24 hours, read-out: Equilibrium Solubility
  solubility thermodynamic at 24 h: 252 µg/mL (≈ 773 µM)
[1]; pH 9, aqueous buffer, pH 9, 12 hours, read-out: Equilibrium Solubility
  solubility thermodynamic at 12 h: 1210 µg/mL (≈ 3720 µM)
[1]; pH 9, aqueous buffer, pH 9, 24 hours, read-out: Equilibrium Solubility
  solubility thermodynamic at 24 h: 1230 µg/mL (≈ 3780 µM)
[1]; pH 10, aqueous buffer, pH 10, 12 hours, read-out: Equilibrium Solubility
  solubility thermodynamic at 12 h: 685 µg/mL (≈ 2110 µM)
[1]; pH 10, aqueous buffer, pH 10, 24 hours, read-out: Equilibrium Solubility
  solubility thermodynamic at 24 h: 678 µg/mL (≈ 2080 µM)
[1]; pH 11, aqueous buffer, pH 11, 12 hours, read-out: Equilibrium Solubility
  solubility thermodynamic at 12 h: 662 µg/mL (≈ 2040 µM)
[1]; pH 11, aqueous buffer, pH 11, 24 hours, read-out: Equilibrium Solubility
  solubility thermodynamic at 24 h: 718 µg/mL (≈ 2210 µM)
[1]; pH 12, aqueous buffer, pH 12, 12 hours, read-out: Equilibrium Solubility
  solubility thermodynamic at 12 h: 1220 µg/mL (≈ 3770 µM)
[1]; pH 12, aqueous buffer, pH 12, 24 hours, read-out: Equilibrium Solubility
  solubility thermodynamic at 24 h: 1220 µg/mL (≈ 3760 µM)
[2]; 13-week compatibility study, only minor powder coagulation, minimal changes in impurities
  compatibility with lactose: judged to be compatible
[2]; with calcium phosphate dibasic, hydroxypropyl methylcellulose (HPMC), meglumine, magnesium oxide (MgO)
  compatibility with excipients: poor compatibility
